According to PMC6406907, “A H2AX–CARP-1 Interaction Regulates Apoptosis Signaling Following DNA Damage” (Cancers, 2019):
No end group written: not given here.

Legend:
MDA-MB-468 cells = details: 10 μM dose, ref [16]; cited from earlier work
Source text: Here, we utilized human TNBC MDA-MB-468 and human cervical cancer HeLa cells to conduct an MTT-based dose-response analysis using Adriamycin and CFM compounds. […] Since Adriamyci ...

endogenous CARP-1 = experiment: Anti-EGFP co-immunoprecipitation with endogenous CARP-1; format: cell-based, human; details: MDA-MB-468 stable subline, anti-EGFP IP, anti-CARP-1 (α2) WB; Figure 5D
Experimental: Logarithmically growing cells were either untreated or treated with different agents for various time periods. The cells were lysed to prepare protein extracts. IP was carried out by incubating approximately 1 mg of the protein lysate with appropriate antibodies. The immunoprecipitates were then analyzed by SDS-PAGE, followed by WB with respective, interacting protein. For Gst-pulldown, Gst-H2AX or various His-TAT-HA-tagged CARP-1 peptides were generated in Escherichia coli (E. coli) BL21 cells essentially as described by us previously. Briefly, the competent E. coli BL-21 (DE3) pLysS cells were transformed separately with various recombinant pGEX-4T-1 or pTAT-HA constructs. The transformed cells were then subjected to selection by combined presence of ampicillin and chloramphenicol; various isolates for each transformation were obtained and bacterial lysates were characterized for expression of fusion peptides. Cells from each isolate were grown in 4 mL of LB medium containing ampicillin only until the optical density (OD)600 reached 0.4–0.8. Expression of fusion peptides was induced over 2–4 h incubation periods after Isopropyl β-D-1-thiogalactopyranoside (IPTG) addition. […]
Figure 5 Fine Mapping of H2AX/CARP-1 interacting epitopes. […] Following stringent washing, the bound proteins were analyzed with WB using anti-HA (upper) or anti-Gst (middle) antibodies. […]

| Molecule | inhibition of growth (MDA-MB-468 cells) | in-cell interaction with endogenous CARP-1 (endogenous CARP-1) |
| --- | --- | --- |
| O=C1N(Cc2ccccc2Cl)c2ccccc2C12NN=C(c1cccc(Cl)c1)S2 (centres unmarked) [CFM-4.16] | robust inhibition of growth | – |
| EGFP-H2AX (1–35): EGFP-tagged fusion protein stably expressed in MDA-MB-468 and HeLa sublines (MSGRGKTGGKARAKAKSRSSRAGLQFPVGRVHRLL; also: EGFP fusion, end not given here; UniProt P16104 1-35, looked up, fragment) | – | robust, in vivo interaction |
